Reference: publication PMC6150412, “Design, Synthesis, and Evaluation of Novel Phenolic Acid/Dipeptide/Borneol Hybrids as Potent Angiotensin Converting Enzyme (ACE) Inhibitors with Anti-hypertension Activity” (Molecules : A Journal of Synthetic Chemistry and Natural …, 2017)

Tests used:
[1] = molecular target: T1, angiotensin converting enzyme (ACE) (Oryctolagus cuniculus, UniProt P12822); assay: In vitro ACE inhibition assay (hippuric acid release from HHL); assay type: biochemical; details: HHL substrate, pH 8.3, 37 °C, 15 min; five concentrations 0.01–10 µM; read-out: ACE-inhibitory activity IC50
T1 construct: purchased Sigma-aldrich, St. Louis, MO, USA A-6778
T1 sequence (P12822 34-1310): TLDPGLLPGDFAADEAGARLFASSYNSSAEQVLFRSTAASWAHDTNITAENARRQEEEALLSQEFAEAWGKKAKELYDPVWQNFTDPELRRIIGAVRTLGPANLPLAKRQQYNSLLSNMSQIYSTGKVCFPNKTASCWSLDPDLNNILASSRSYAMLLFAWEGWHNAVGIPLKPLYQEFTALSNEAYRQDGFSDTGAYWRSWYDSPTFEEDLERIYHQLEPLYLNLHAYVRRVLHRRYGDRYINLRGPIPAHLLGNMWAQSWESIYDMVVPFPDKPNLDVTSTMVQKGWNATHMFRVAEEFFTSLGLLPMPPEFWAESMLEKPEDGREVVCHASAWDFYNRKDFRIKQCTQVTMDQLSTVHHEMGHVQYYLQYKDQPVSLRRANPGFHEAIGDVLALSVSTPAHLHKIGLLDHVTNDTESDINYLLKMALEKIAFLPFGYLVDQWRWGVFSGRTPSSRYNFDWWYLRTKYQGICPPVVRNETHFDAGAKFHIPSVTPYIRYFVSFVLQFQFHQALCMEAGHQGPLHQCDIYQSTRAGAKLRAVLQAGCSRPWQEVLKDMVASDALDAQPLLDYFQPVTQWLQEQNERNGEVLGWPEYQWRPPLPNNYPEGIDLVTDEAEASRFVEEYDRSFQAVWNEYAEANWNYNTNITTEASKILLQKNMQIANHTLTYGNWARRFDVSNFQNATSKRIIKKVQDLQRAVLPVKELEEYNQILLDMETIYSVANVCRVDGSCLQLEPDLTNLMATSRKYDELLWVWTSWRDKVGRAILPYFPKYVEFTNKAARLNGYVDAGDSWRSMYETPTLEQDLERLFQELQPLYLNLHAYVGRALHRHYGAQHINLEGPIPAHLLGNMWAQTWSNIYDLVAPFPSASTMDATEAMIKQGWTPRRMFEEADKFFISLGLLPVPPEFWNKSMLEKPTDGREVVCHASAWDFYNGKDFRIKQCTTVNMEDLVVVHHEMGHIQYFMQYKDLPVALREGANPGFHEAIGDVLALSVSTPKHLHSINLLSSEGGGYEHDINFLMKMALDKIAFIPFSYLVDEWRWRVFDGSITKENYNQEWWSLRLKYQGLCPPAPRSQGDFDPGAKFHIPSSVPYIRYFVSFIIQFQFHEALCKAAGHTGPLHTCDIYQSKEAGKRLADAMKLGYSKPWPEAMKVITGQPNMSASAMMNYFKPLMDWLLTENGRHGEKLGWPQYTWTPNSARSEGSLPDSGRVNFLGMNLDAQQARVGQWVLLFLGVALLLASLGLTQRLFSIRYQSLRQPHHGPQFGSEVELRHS
Procedure: The in vitro ACE-inhibitory activity of the newly synthesized compounds was evaluated using ACE inhibition assay (Sigma-aldrich, St. Louis, MO, USA, No. A-6778). The experiments were carried out for all the designed compounds (7a–7h), for ACE-inhibitory activity at five different concentrations (0.01–10 µM). Lisinopril, a well-known ACE inhibitor drug, was used as standard for comparison with the inhibitory activity of synthesized compounds. The ACE-inhibitory activity can be calculated by the following equation: ACE-inhibitory activity (inhibition rate %) = [(Ablank1 − Asample)/(Ablank1 − Ablank2)] × 100, where blank 1: Positive control (without ACE inhibition) and blank 2: Reagent blank. Then we measured and calculated the IC50 values of the designed compounds (7a–7h).
The preliminary biological investigations were conducted in vitro using the ACE-inhibition assay. […] That is, the activity of these compounds gradually declined when the size of the amino acid side chain increased. Besides, the influence of phenolic acids on ACE-inhibitory activity was more obvious following the order: protocatechuic acid > ferulic acid > gallic acid > 3,4-dihydroxybenzene acid. That is, substituents in positions 3 and 4 in the benzene ring are beneficial to the increase of ACE-inhibitory activity. At the same time, the shorter the amino side chain in phenolic acids, the better the ACE-inhibitory activity.

[2] = system: spontaneously hypertensive rats (SHRs); assay: Acute antihypertensive test, single intragastric dose, tail-cuff BP; assay type: in vivo, rat; details: for Duration of antihypertensive activity / Reduction in blood pressure (systolic arterial pressure) compared with lisinopril: single oral dose; for Reduction in blood pressure (systolic arterial pressure) compared with lisinopril: same molar dose as lisinopril
Procedure: (§1) All the experiments were approved by the Institutional Animal Ethics Committee of Northwest University. Experiments were carried out on spontaneously hypertension rats (SHRs) that were 9–10 weeks old and weighed 200–220 g. SHRs treated with normal saline were used as controls. Lisinopril was used as a standard drug. Blood pressure (BP) was recorded automatically every day by the indirect tail-cuff method using an electrosphygmomanometer (BP-2010A Storage Pressure Meter). […] The BP were measured before and 0.5, 1, 2, 3, 4, 5 and 6 h after a single dose of intragastrical administration of active compounds.
(§2) Figure 4 (A,B), the acute antihypertensive activity of compounds 7a and 7g in spontaneously hypertension rats (SHRs) for single dose administration (dosing time: 0 min); (C) the therapeutic antihypertensive activity of compounds 7a and 7g in SHRs for 7 days treatment (dosing time: 0 day; blood pressure (BP) measured time: 9:30–11:30 am). Data are presented as mean ± SEM, n = 6. The BP was determined with a BP-2010A Storage Pressure Meter. This system measures BP by recording the cuff pressure at which the interrupted blood flow returns to the tail. Before drug administration, training consisted of five sessions over 3 days. The SHRs were placed into a thermostatically controlled Lucite box of the Visitech system BP2010A, and heated on a heated pad maintained at 37 °C for 2 min before BP measurement started. The tail root of SHR was surrounded by an inflatable tubular sleeve, and a pulse electron detector was placed in the root of the tails. Then BP was measured after the computer provided a stable signal. The BP for the session was accepted as the average of five BP readings that were within 10 mm Hg. The average BP values were calculated by employing the ANOVA method.

[3] = system: spontaneously hypertensive rats (SHRs); assay: Therapeutic antihypertensive test, 7 consecutive days oral treatment, tail-cuff BP; assay type: in vivo, rat; details: for Maximum antihypertensive effect compared with lisinopril (20 mg/kg/day): 100 mg/kg daily, oral, 7 days; for Blood pressure during repeated treatment: 100 mg/kg, Po. 7 days
Procedure: as §1, §2

Compound	IC50 [1] [µM]	Onset of antihypertensive activity after oral treatment [2] [h]	Duration of antihypertensive activity [2]	Reduction in blood pressure (systolic arterial pressure) compared with lisinopril [2]	Maximum antihypertensive effect compared with lisinopril (20 mg/kg/day) [3]	Blood pressure during repeated treatment [3]
CC(C)[C@H](NC(=O)c1ccc(O)c(O)c1)C(=O)N1CCC[C@H]1C(=O)OC1CC2CCC1(C)C2(C)C (stereo partly shown) [Compound 7a]	6.76 ± 0.96	0.5	four	slightly better than that of lisinopril	approximately equivalent to that of lisinopril	decreased remarkably on the second day after oral administration
NCCCC[C@H](N[C@@H](CCc1ccccc1)C(=O)O)C(=O)N1CCC[C@H]1C(=O)O [Lisinopril, reference compound]	< 0.01					
COc1cc(/C=C/C(=O)N[C@H](C(=O)N2CCC[C@H]2C(=O)OC2CC3CCC2(C)C3(C)C)C(C)C)ccc1O (stereo partly shown) [Compound 7c]	11.9 ± 1.82					
CC(C)[C@H](NC(=O)Cc1ccc(O)c(O)c1)C(=O)N1CCC[C@H]1C(=O)OC1CC2CCC1(C)C2(C)C (stereo partly shown) [Compound 7b]	13.9 ± 1.61					
CC(C)[C@H](NC(=O)c1cc(O)c(O)c(O)c1)C(=O)N1CCC[C@H]1C(=O)OC1CC2CCC1(C)C2(C)C (stereo partly shown) [Compound 7d]	13.5 ± 2.02					
COc1cc(/C=C/C(=O)N[C@@H](CC(C)C)C(=O)N2CCC[C@H]2C(=O)OC2CC3CCC2(C)C3(C)C)ccc1O (stereo partly shown) [Compound 7g]	6.88 ± 0.85	0.5	four	slightly better than that of lisinopril	approximately equivalent to that of lisinopril	decreased remarkably on the second day after oral administration
CC(C)C[C@H](NC(=O)c1ccc(O)c(O)c1)C(=O)N1CCC[C@H]1C(=O)OC1CC2CCC1(C)C2(C)C (stereo partly shown) [Compound 7e]	10.6 ± 1.72					
CC(C)C[C@H](NC(=O)c1cc(O)c(O)c(O)c1)C(=O)N1CCC[C@H]1C(=O)OC1CC2CCC1(C)C2(C)C (stereo partly shown) [Compound 7h]	13.2 ± 2.47					
CC(C)C[C@H](NC(=O)Cc1ccc(O)c(O)c1)C(=O)N1CCC[C@H]1C(=O)OC1CC2CCC1(C)C2(C)C (stereo partly shown) [Compound 7f]	14 ± 1.84					
